Test results taken from ChEMBL document CHEMBL4699488, “Probing the B- & C-rings of the antimalarial tetrahydro-β-carboline MMV008138 for steric and conformational constraints” (Bioorg Med Chem Lett, 2020).

Tested on: Plasmodium falciparum
Assay: Antimalarial activity against Plasmodium falciparum Dd2 incubated for 72 hrs by SYBR green dye based assay
Assay type: functional, organism-based
Conditions: Dd2, 72 h

SMILES	EC50 [nM]
C[C@]1(c2ccc(Cl)cc2Cl)N[C@H](C(=O)O)Cc2c1[nH]c1ccccc21	> 10000
O=C(O)[C@@H]1Cc2c([nH]c3ccccc23)[C@@H](c2ccc(Br)cc2Cl)N1	320
C[C@]1(c2ccccc2)N[C@H](C(=O)O)Cc2c1[nH]c1ccccc21	> 10000
C[C@]1(c2ccccc2Cl)N[C@H](C(=O)O)Cc2c1[nH]c1ccccc21	> 10000
Cc1ccc([C@H]2N[C@H](C(=O)O)Cc3c2[nH]c2ccccc32)c(Cl)c1	410
C[C@]1(c2ccc(Cl)cc2)N[C@H](C(=O)O)Cc2c1[nH]c1ccccc21	> 10000
C[C@@]1(C(=O)O)Cc2c([nH]c3ccccc23)[C@@H](c2ccc(Cl)cc2Cl)N1 (racemic)	> 10000
O=C(O)[C@H](Cc1c[nH]c2ccccc12)NCc1ccc(Cl)cc1Cl	> 10000
Cn1c2c(c3ccccc31)C[C@@H](C(=O)O)N[C@@H]2c1ccc(Cl)cc1Cl	8000
O=C(O)[C@@H]1Cc2c([nH]c3ccccc23)[C@]2(CCc3ccccc32)N1	> 10000
Cc1ccc([C@H]2N[C@H](C(=O)O)Cc3c2[nH]c2ccccc32)c(C)c1	10000
O=C(O)[C@@H]1Cc2c([nH]c3ccccc23)CN1Cc1ccc(Cl)cc1Cl	> 10000

Tested on: Plasmodium falciparum
Assay: Antimalarial activity against Plasmodium falciparum Dd2 at 10 uM incubated for 72 hrs by SYBR green dye based assay relative to control
Assay type: functional
Conditions: not given

SMILES	inhibition at 10 µM [%]
CN1[C@H](c2ccc(Cl)cc2Cl)c2[nH]c3ccccc3c2C[C@H]1C(=O)O	65

Tested on: not listed separately
Assay: Inhibition of Plasmodium falciparum IspD
Conditions: not given

SMILES	IC50 [nM]
O=C(O)[C@@H]1Cc2c([nH]c3ccccc23)[C@@H](c2ccc(Br)cc2Cl)N1	34
Cc1ccc([C@H]2N[C@H](C(=O)O)Cc3c2[nH]c2ccccc32)c(Cl)c1	82
O=C(O)[C@@H]1Cc2c([nH]c3ccccc23)[C@@H](c2ccccc2)N1	> 5000
Cc1cc(Cl)ccc1[C@H]1N[C@H](C(=O)O)Cc2c1[nH]c1ccccc21	260
Cc1ccc([C@H]2N[C@H](C(=O)O)Cc3c2[nH]c2ccccc32)c(C)c1	1000
O=C(O)[C@@H]1Cc2c([nH]c3ccccc23)[C@@H](c2ccccc2Cl)N1	1000
O=C(O)[C@@H]1Cc2c([nH]c3ccccc23)[C@@H](c2ccc(Cl)cc2)N1	510
